Experimental data reported in US20170267986A1, “GENERATION OF MANNOSE-6-PHOSPHATE CONTAINING RECOMBINANT ALPHA-N-ACETYL GLUCOSAMINIDASE” (SHIRE HUMAN GENETIC THERAPIES, INC., priority 2014, published 2017).

What was measured:
Format in all cases: biochemical
[1] = biological target: T1, rhNaglu (Homo sapiens, UniProt P54802); experiment: Naglu substrate analysis: hydrolysis of UDP-sugars by rhNaglu, PAD-HPLC; conditions: 0.8 mM UDP-sugar, rhNaglu 2.6 to 2,000 μg/ml, Tris pH 7.15, 37° C., 1 hour
T1 construct: The N-terminal 23 amino acids are cleaved as the precursor protein enters the endoplasmic reticulum, resulting in a mature form; made in house; host or cells: human fibrosarcoma HT1080 cell clone over-expressing rhNaglu
T1 sequence (P54802 24-743): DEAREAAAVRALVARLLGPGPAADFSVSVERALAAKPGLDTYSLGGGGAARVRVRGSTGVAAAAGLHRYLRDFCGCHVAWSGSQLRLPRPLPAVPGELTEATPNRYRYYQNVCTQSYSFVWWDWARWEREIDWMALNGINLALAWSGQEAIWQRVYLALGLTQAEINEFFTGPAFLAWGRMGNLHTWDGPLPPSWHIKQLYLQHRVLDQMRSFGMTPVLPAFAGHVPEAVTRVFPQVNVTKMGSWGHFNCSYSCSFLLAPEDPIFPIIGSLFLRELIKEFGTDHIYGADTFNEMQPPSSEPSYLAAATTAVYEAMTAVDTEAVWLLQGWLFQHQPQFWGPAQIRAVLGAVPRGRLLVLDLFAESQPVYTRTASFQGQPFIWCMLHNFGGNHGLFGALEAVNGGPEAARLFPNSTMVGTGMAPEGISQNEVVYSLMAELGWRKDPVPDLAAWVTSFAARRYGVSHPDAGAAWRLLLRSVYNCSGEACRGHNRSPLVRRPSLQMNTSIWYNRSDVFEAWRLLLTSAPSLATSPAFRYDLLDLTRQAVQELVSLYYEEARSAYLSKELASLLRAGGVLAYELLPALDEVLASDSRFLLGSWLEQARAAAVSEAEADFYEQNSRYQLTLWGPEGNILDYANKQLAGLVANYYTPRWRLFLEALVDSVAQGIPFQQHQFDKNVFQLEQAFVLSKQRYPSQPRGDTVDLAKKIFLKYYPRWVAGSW
Experimental: Recombinant human Naglu was co-incubated with uridine diphosphate N-acetylglucosamine (UDP-GlcNAc) or uridine diphosphate N-acetyl galactosamine (UDP-GalNAc). UDP-GlcNAc, GlcNAc (N-acetylglucosamine) and UDP-GalNAc were detected using PAD-HPLC (Pulsed Amperometric Detection-High Pressure Liquid Chromatography) that was modified after Chavaroche et al. 2011.
Recombinant human Naglu was dialyzed into Tris buffer (40 mM Tris pH 7.15, 100 mM NaCl, 4 mM MgCl2, and 4 mM MnCl2) and concentrated with VivaSpin® sample concentrators having a 30 kDa cut-off (Viva Products, Inc., Littleton, Mass.). […]
Samples were then subjected to centrifugation at 10,000 rpm, and the resulting supernatants were loaded on PA10 columns and detected by PAD-HPLC (Pulsed Amperometric Detection-High Pressure Liquid Chromatography) (Dionex ICS-3000 Ion Chromatography System (Thermo Fisher Scientific, Inc., Sunnyvale, Calif.)). […] The peak areas for the eluted UDP-GlcNAc were measured, and the reductions of the area under the curve (AUC) in response to increased concentrations of rhNaglu were determined (FIG. 1A). A new peak at 10.7 minutes was detected on the chromatograms of samples treated with concentrations of rhNaglu of 23.4 μg/ml and above. […] The peak areas for the eluted GlcNAc were measured, and the increases of the AUC in response to increased concentrations of rhNaglu were determined (FIG. 1B). […]

[2] = biological target: T1, rhNaglu; experiment: Naglu activity assay with various inhibitors (4MU-GlcNAc fluorescent substrate); conditions: added at 0.0625, 0.25, 1, 4 and 8 mM; 37° C., 1 hour, pH 4.5
Experimental: A 10 mM stock of Naglu activity substrate solution was prepared by dissolving 5 mg of substrate, i.e., 4-methylumbelliferyl-N-acetyl-α-D-glucosaminide, in 250 μl of 100% DMSO. Naglu activity assay reaction buffer (0.1 M sodium acetate, 0.5 mg/ml BSA, pH 4.5) was then added to bring the volume up to 1318 μl. This 10 mM substrate stock solution was then diluted 10 fold with reaction buffer to make the final 1 mM substrate solution.
Samples and controls were pre-diluted in reaction buffer. 10 μl of each pre-diluted sample/control were applied in duplicate wells on a black clear bottom 96 well plate. 75 μl of 1 mM substrate solution containing various concentrations of inhibitors were added to each well. The plates were sealed with plate sealer and wrapped with aluminum foil. The plates were then placed in a Boekel Jitterbug Microplate Incubator Shaker (Cole-Parmer, Vernon Hills, Ill.) and shaken (setting at #1) at 37° C. for 1 hour. 200 μl of Stop Buffer (0.2 M Glycine, pH 10.7) were then added to all of the wells and fluorescence emission (excitation/emission at 360 nm/460 nm, respectively) was measured using a SpectraMax® Plus M2 plate reader from Molecular Devices (Sunnyvale, Calif.).
To further confirm that rhNaglu could hydrolyze UDP-GlcNAc, we investigated whether UDP-GlcNAc inhibited the hydrolysis by rhNaglu of the fluorescent substrate 4MU-GlcNAc (4-methylumbelliferyl-N-acetyl-α-D-glucosaminide) in a Naglu activity assay. Briefly, UDP-GlcNAc, as well as GlcNAc, UDP-GalNAc and Glucosamine, were added to the Naglu activity assay at 0.0625, 0.25, 1, 4 and 8 mM concentrations. The fluorescence emitted from these samples was compared to control samples only including rhNaglu and 4MU-GlcNAc.

[3] = biological target: T1, rhNaglu; experiment: Isothermal titration calorimetry (ITC) of UDP-GlcNAc hydrolysis by rhNaglu; conditions: preliminary ITC data
Source text: The reduction of the UDP-GlcNAc substrate in the samples containing rhNaglu (FIG. 3A) and the formation of the reaction product GlcNAc in the samples containing rhNaglu (FIG. 3B) was apparent. The reductions of UDP-GlcNAc and the formation of GlcNAc were dependent on the initial concentration of UDP-GlcNAc in the reaction sample.

uridine diphosphate N-acetylglucosamine [UDP-GlcNAc]
hydrolysis by rhNaglu [1]: hydrolyses
inhibition of rhNaglu activity toward 4MU-GlcNAc [2]: Inhibition
Km of hydrolysis by rhNaglu [3]: milimolar range
